# Laboratory results as given in patent publication US11155551B2, “Nicotinic acetylcholine receptor silent agonists” (University of Florida Research Foundation, Inc., priority 2015, dated 2021).
# Key:
# human α7 nAChR = target: T1, human α7 nAChR (Homo sapiens, UniProt P36544); assay: Two-electrode voltage clamping of human α7 nAChR expressed in Xenopus oocytes (net-charge / peak current relative to 60 μM ACh); assay type: cell-based; conditions: for Potentiated response: 30 μM test compound + 10 μM PNU-120596 co-application; for Potentiated response / Relative response: relative to 60 μM ACh control, mean ± SEM, N ≥ 4; for Relative response: net-charge response to 30 μM test compound alone; for functional classification at α7 nAChR: 30 μM alone and with 10 μM PNU-120596, partial agonist = net charge > 1/10th ACh control
# T1 construct: expressed in transfected cells; host or cells: Xenopus oocytes
# Experimental: Electrophysiology: The panel of compounds synthesized was assayed using human α7 nAChR expressed in Xenopus oocytes and two-electrode voltage clamping. The partial agonism activity was evaluated, quantified as net-charge for 30 μM applications of compounds, measured relative to the control response to applications of 60 μM ACh. The induction of PAM-sensitive desensitization was detected as the net-charge responses when compounds were co-applied with the PAM PNU-120596 (30 μM compound+10 μM PNU-120596), measured relative to responses to 60 μM ACh applied alone. […] It is a unique property of α7 orthosteric agonist-induced currents that they vary systematically in the relationship between peak current and net charge as a function of the effective concentration applied (Papke & Papke (2002) Br. J. Pharm. 137: 49-61; Papke & Thinschmidt (1998) Neurosci. Let. 256: 163-166). This was due to the concentration-dependent desensitization of the receptors, which is likely to be associated with high levels of agonist binding site occupancy (Williams et al., (2011) J. Gen. Physiol. 137: 369-384) and is observed even when agonists are rapidly applied to small cells (Williams et al., (2012) Mol. Pharmacol. 82: 746-759) or acutely dissociated neurons (Uteshev et al., (2002) Brain Res. 948: 33-46). The control ACh concentration used for these experiments is roughly the EC80 for the net-charge responses.
# By normalizing both the peak currents and net-charge measurements of the drug responses at the probe concentration of 30 μM (FIG. 3B) to those of the ACh control, the relationship between the probe concentration and the EC for each of the drugs was estimated (Papke, R. L. (2005) Life Sci.). At a concentration where the ratio of the normalized measures equaled one, the drug would be at the same effective concentration as 60 μM ACh.
# Electrophysiology: New compounds were assayed for activity with the α7 nAChR expressed in Xenopus oocytes using two-electrode voltage clamping as previously described in Papke et al., (2014) J. Pharmacol. Experimental Therap. 350: 665-680, incorporated herein by reference in its entirety, and compared to responses evoked by 60 μM Ach (FIGS. 5 and 6). The compound set was assayed at a concentration of 30 μM to provide a standard comparison benchmark.
# Based on earlier experience this concentration is high enough to provide an observable response and low enough to avoid possible complications such as channel block. The net-charge response for each compound application is reported relative to those for ACh control applications. Data were expressed as the mean ±S.E.M. from at least four oocytes for each experiment and were plotted by Kaleidagraph (Abelbeck Software, Reading, Pa.).
# α3β4 nAChR = α3β4 nAChR (Homo sapiens, UniProt P30926+P32297); assay: Receptor subtype specificity: α3β4 nAChR activation / antagonism; assay type: cell-based; conditions: 100 μM
# α4β2 nAChR = α4β2 nAChR (Homo sapiens, UniProt P17787+P43681); assay: Receptor subtype specificity: α4β2 nAChR activation / antagonism; assay type: cell-based; conditions: for antagonist activity at α4β2: 100 μM
# [1] = system: LPS-stimulated secretion of TNF-α in rat cultured microglia; conditions: cited from earlier work
# mouse pain models = conditions: formalin- and acetic acid-induced nociceptive conditions, chronic constrictive nerve injury; cited from earlier work
# T1 sequence (P36544 23-502): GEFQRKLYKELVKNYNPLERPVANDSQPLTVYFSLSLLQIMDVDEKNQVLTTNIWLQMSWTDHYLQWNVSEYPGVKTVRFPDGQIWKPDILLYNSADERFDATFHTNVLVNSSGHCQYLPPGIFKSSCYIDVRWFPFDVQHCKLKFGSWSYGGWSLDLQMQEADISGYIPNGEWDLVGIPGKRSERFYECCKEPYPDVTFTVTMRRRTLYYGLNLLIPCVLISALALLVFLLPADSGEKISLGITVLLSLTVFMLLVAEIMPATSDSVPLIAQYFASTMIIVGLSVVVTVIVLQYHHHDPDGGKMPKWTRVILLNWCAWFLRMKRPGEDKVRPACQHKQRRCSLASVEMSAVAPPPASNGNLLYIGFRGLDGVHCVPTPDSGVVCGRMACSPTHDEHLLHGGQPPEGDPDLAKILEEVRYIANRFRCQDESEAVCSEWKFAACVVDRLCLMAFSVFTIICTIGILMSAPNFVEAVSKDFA
# α4β2 nAChR, sequence (P43681 29-627 limits assumed): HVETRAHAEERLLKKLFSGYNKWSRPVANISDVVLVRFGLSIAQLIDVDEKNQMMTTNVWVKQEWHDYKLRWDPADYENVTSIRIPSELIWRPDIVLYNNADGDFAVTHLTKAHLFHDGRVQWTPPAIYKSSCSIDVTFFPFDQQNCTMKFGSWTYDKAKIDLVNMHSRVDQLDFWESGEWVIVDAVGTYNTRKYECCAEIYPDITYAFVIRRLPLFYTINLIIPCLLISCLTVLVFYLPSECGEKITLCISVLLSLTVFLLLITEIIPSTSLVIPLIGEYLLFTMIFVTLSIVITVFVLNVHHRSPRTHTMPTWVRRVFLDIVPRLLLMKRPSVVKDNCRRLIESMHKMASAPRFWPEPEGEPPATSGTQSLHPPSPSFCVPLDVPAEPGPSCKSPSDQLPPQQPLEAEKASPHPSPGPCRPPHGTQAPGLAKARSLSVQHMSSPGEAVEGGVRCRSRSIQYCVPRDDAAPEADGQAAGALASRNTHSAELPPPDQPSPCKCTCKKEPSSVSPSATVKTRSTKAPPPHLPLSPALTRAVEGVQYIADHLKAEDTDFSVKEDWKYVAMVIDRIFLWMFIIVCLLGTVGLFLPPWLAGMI
# α4β2 nAChR, sequence (P17787 26-502): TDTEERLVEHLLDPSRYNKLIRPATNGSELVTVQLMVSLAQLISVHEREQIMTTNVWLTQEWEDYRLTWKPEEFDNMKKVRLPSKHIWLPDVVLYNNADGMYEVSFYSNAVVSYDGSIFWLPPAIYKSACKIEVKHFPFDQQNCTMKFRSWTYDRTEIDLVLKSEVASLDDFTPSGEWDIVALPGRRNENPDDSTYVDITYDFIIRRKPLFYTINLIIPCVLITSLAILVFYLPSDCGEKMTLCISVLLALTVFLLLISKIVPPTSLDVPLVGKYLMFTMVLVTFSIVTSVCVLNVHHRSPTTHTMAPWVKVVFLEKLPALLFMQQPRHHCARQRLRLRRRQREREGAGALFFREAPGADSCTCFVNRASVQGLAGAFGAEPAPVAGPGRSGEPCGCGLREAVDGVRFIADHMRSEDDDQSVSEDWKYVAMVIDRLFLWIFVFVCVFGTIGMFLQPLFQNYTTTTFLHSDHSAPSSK
# α3β4 nAChR, sequence (P32297 32-505): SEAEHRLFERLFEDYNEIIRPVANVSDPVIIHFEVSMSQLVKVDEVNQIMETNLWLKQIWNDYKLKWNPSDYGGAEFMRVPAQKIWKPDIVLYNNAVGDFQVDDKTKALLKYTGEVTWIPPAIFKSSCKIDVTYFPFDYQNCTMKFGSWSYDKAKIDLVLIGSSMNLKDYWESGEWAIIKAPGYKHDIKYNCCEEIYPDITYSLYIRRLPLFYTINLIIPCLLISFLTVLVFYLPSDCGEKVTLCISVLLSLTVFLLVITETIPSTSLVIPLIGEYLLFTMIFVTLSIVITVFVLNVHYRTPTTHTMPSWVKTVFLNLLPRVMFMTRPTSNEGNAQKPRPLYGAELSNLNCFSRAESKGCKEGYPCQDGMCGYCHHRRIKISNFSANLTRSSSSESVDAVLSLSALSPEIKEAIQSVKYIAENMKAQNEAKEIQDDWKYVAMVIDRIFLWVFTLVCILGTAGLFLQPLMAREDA
# α3β4 nAChR, sequence (P30926 22-498): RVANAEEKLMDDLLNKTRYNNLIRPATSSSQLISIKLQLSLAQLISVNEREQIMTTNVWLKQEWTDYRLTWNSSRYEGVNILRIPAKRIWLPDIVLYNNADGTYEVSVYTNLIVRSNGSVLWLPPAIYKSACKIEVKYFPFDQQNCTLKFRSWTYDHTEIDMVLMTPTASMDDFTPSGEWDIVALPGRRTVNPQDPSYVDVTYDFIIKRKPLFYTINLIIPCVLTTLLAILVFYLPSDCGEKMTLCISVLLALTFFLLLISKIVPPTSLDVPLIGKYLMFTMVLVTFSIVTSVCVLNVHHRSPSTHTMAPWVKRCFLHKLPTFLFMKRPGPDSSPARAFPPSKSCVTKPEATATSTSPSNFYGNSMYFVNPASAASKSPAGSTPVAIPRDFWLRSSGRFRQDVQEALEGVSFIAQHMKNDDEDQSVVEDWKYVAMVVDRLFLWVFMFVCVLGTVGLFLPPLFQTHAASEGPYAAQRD
SMILES,Potentiated response (human α7 nAChR),Relative response (human α7 nAChR),melting point [°C],functional classification at α7 nAChR (human α7 nAChR),PAM-dependent response compared to the parent unsubstituted diEPP (human α7 nAChR; co-application with PNU-120596) [%],antagonism of α3β4 (α3β4 nAChR),activation / partial agonism of α4β2 nAChR (α4β2 nAChR),antagonist activity at α4β2 (α4β2 nAChR),"PAM-dependent currents relative to ACh (human α7 nAChR; co-application with PNU-120596, meta-substituted series) [fold]",suppression of LPS-stimulated secretion of TNF-α [1],antinociceptive activity (mouse pain models)
"CCN1CCN(c2ccc(C(F)(F)F)cc2)CC1 [Compound 1n, 1-ethyl-4-(4-(trifluoromethyl)phenyl)piperazine]",1.4 ± 0.,0.000 ± 0.004,56.3 to 56.5,–,–,–,–,–,–,–,–
"CCN1CCN(c2ccc(F)cc2)CC1 [Compound 1r, 1-ethyl-4-(4-fluorophenyl)piperazine]",0.0 ± 0.0,0.000 ± 0.003,30 to 30.5,–,–,–,–,–,–,–,–
"CC[N+]1(CC)CCN(c2ccc(C)cc2)CC1.[I-] [Compound 2a, 1,1-diethyl-4-p-tolylpiperazin-1-ium iodide]",3.6 ± 2.0,0.011 ± 0.003,147.4 to 148.8,candidate silent agonists,–,–,–,–,–,–,–
"CC[N+]1(CC)CCN(c2cccc(C)c2)CC1.[I-] [Compound 2d, 1,1-diethyl-4-m-tolylpiperazin-1-ium iodide]",0.2 ± 0.1,0.001 ± 0.000,144 to 145,no significant activity as either partial agonists or as silent agonists,–,–,–,–,–,–,–
"CC[N+]1(CC)CCN(c2cccc(OC)c2)CC1.[I-] [Compound 2g, 1,1-diethyl-4-(3-methoxyphenyl)piperazin-1-ium iodide]",0.6 ± 0.2,0.011 ± 0.011,–,no significant activity as either partial agonists or as silent agonists,50,significant antagonism,–,–,–,–,–
"CC[N+]1(CC)CCN(c2ccc(C(F)(F)F)cc2)CC1.[I-] [Compound 2n, 1,1-diethyl-4-(4-(trifluoromethyl)phenyl)piperazin-1-ium iodide]",61.8 ± 7.7,0.032 ± 0.003,–,candidate silent agonists,–,–,neither to be partial agonists,nor to have significant antagonist activity,–,–,–
"CC[N+]1(CC)CCN(c2cccc(Br)c2)CC1.[I-] [Compound 2p, 4-(3-bromophenyl)-1,1-diethylpiperazin-1-ium iodide]",10.0±1.7,0.040 ± 0.006,–,candidate silent agonists,–,–,neither to be partial agonists,nor to have significant antagonist activity,9.98,–,–
"O=C(c1ccc(-c2cccc(C(F)(F)F)c2)o1)N1CCN2CCC1CC2 [NS-6740, 1,4-diazabicyclo[3.2.2]nonan-4-yl(5-(3-(trifluoromethyl)phenyl)furan-2-yl) methanone]",–,–,–,–,–,–,–,–,–,more efficacious than some agonists (including choline),showed antinoceptive activity
